{"source": "patent US20080102497A1", "about": "“ENZYMATIC HYDROLYSIS OF STARCH” (priority 2006, published 2008)", "format_in_all_cases": "biochemical", "key": {"[1]": {"biological_target": "T1, α-amylase from bovine pancreas (Bos taurus, UniProt Q3MHH8)", "T1 construct": "The α-amylase from bovine pancreas; from tissue; host or cells: bovine pancreas", "T1 sequence (Q3MHH8 16-511)": "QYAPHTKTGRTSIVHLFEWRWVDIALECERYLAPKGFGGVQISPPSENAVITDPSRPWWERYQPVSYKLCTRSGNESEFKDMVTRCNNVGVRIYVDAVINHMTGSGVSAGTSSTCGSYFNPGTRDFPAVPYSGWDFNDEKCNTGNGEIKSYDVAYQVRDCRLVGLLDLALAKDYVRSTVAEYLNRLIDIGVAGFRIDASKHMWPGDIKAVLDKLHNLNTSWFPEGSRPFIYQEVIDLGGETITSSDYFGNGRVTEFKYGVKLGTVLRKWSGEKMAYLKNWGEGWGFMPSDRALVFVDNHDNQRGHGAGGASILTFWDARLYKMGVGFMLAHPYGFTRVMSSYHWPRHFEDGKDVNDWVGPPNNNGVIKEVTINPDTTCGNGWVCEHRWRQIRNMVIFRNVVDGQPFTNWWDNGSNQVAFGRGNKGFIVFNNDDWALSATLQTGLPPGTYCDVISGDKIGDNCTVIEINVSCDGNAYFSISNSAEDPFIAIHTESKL", "experiment": "hydrolysis of raw corn starch at pH 5.3 or 7.0, reducing sugar by DNSA", "settings": "for Relative Activity: 37° C., 20 min", "description": "Thereafter, 40 μl of each pre-incubation solution was added to 15 mg raw corn starch, and the reaction mixture incubated at 37° C. for 20 minutes. The control reaction mixture contained substrate, enzyme, and buffer but no manganese ion. The starch hydrolysis reaction was stopped by combining the reaction mixture with a solution containing DNSA and heating for 30 min at 85° C. The absorbance of the control and test samples was measured at 562 nm to monitor the amount of reducing sugar in each sample."}, "[2]": {"system": "glucoamylase from Rhizopus sp.", "experiment": "pH effect on hydrolysis of raw corn starch", "settings": "for Relative Activity: 37° C., 20 min, control at pH 4 = 100", "procedure": "Enzyme solutions of the glucoamylase from Rhizopus sp. Were prepared in various pH buffers having a pH of 3, 4, 5, 6, 7, or 8. Thereafter, 40 μl of the buffered enzyme solution and a stock solution containing Mn^++ were added to 6 samples containing 15 mg raw corn starch to provide a reaction mixture containing 1.0 mM Mn^++. The reaction mixtures were incubated at 37° C. for 20 minutes."}, "[3]": {"biological_target": "T2, α-amylase from Bacillus licheniformis (Bacillus licheniformis, UniProt P06278)", "T2 sequence (P06278 30-512)": "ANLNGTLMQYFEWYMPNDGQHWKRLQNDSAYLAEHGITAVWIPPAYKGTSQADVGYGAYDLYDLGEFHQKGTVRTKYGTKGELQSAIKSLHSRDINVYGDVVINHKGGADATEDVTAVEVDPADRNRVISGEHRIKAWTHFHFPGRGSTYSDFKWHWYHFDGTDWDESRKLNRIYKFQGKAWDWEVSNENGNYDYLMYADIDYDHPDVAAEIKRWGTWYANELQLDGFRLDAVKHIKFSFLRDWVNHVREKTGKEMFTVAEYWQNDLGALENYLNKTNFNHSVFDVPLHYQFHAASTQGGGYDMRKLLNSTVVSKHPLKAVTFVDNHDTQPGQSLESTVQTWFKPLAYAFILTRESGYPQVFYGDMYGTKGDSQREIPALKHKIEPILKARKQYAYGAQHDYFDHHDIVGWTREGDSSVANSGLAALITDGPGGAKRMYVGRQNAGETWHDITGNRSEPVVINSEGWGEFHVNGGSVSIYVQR", "experiment": "hydrolysis of cooked starches from different botanical sources", "settings": "pH 5.2, 37° C., 10 min", "description": "The control reaction mixture contained enzyme, buffer, and starch but no manganese ion. The starch hydrolysis reaction was stopped by combining the reaction mixture with 3,5 dinitrosalicylic acid (DNSA) and heating for 30 min at 85° C. The absorbance of the control and test samples was measured at 562 nm to monitor the amount of reducing sugar in each sample."}, "[4]": {"biological_target": "T2, α-amylase from Bacillus licheniformis", "experiment": "hydrolysis of cooked corn starch varieties", "settings": "pH 5.2, 37° C., 10 min", "description": "The separate reaction mixtures were incubated at 37° C. for 10 minutes. The control reaction mixture contained enzyme, buffer, and starch but no manganese ion. The starch hydrolysis reaction was stopped by combining the reaction mixture with a solution containing DNSA and heating for 30 min at 85° C. The absorbance of the control and test samples was measured at 562 nm to monitor the amount of reducing sugar in each sample."}, "[5]": {"biological_target": "α-amylase from Aspergillus oryzae (Aspergillus oryzae, UniProt P0C1B3)", "experiment": "hydrolysis of cooked dent corn starch", "settings": "cooked dent corn starch 0.5%, pH 5.2, 37° C., 10 min", "description": "(§1) The separate reaction mixtures were incubated at 37° C. for 10 minutes. The control reaction mixtures contained enzyme, buffer, and starch but no manganese ion. The starch hydrolysis reaction was stopped by combining the reaction mixture with a solution containing DNSA and heating for 30 min at 85° C. The absorbance of the control and test samples was measured at 562 nm to monitor the amount of reducing sugar in each sample."}, "[6]": {"biological_target": "T3, α-amylase from human saliva (Homo sapiens, UniProt P0DUB6)", "T3 construct": "the α-amylase from human saliva; from tissue; host or cells: human saliva", "T3 sequence (P0DUB6 16-511)": "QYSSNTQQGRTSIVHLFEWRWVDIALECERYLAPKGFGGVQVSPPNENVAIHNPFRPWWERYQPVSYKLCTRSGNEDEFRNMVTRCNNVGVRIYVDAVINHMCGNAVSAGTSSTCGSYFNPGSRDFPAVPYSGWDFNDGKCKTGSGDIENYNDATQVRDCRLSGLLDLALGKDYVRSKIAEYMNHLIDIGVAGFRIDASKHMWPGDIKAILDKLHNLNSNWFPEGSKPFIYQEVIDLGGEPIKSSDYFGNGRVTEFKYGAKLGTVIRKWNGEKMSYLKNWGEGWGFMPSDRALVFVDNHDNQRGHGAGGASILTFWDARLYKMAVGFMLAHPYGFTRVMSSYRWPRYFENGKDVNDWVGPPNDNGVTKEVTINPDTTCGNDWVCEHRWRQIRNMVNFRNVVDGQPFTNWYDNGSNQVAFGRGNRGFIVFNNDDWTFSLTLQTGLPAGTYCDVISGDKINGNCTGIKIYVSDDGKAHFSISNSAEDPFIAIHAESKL", "experiment": "hydrolysis of cooked dent corn starch", "settings": "cooked dent corn starch 0.5%, pH 5.2, 37° C., 10 min", "description": "as §1"}, "[7]": {"biological_target": "T4, industrial α-amylase known as Termamyl (Bacillus licheniformis, UniProt P06278)", "T4 construct": "purchased Novozymes", "T4 sequence (P06278 30-512)": "as the sequence (P06278 30-512) above", "experiment": "hydrolysis of cooked dent corn starch", "settings": "cooked dent corn starch 0.5%, pH 5.2, 37° C., 10 min", "description": "as §1"}, "β-amylase from barley": {"biological_target": "β-amylase from barley (Hordeum vulgare, UniProt P16098)", "sequence (P16098 whole entry)": "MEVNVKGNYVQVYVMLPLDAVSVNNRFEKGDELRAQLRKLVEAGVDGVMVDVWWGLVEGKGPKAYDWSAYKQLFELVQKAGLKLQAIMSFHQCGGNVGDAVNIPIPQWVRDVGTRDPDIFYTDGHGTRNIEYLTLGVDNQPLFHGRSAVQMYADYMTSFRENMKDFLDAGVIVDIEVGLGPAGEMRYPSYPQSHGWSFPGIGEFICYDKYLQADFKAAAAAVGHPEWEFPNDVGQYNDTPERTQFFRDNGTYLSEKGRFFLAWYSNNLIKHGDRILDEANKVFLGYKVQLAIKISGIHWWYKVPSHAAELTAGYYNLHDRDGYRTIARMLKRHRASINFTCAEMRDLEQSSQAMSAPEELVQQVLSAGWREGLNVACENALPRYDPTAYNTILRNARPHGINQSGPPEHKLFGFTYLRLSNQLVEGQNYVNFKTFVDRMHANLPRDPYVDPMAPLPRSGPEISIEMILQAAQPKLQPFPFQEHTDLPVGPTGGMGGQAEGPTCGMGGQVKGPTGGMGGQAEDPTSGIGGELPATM", "experiment": "hydrolysis of cooked dent corn starch", "settings": "cooked dent corn starch 0.5%, pH 5.2, 37° C., 10 min", "description": "as §1"}}}
{"molecule": "[Mn+2]", "note": "[Mn^++, manganese ions]", "values": [{"measurement": "Relative Activity", "setting": "[1]; 0.01 mM Mn^++, pH 5.3 sodium acetate buffer", "value": 108.3, "unit": "%"}, {"measurement": "Relative Activity", "setting": "[1]; 0.01 mM Mn^++, pH 7.0 potassium phosphate buffer", "value": 103.5, "unit": "%"}, {"measurement": "Relative Activity", "setting": "[1]; 0.1 mM Mn^++, pH 5.3 sodium acetate buffer", "value": 125.0, "unit": "%"}, {"measurement": "Relative Activity", "setting": "[1]; 0.1 mM Mn^++, pH 7.0 potassium phosphate buffer", "value": 103.5, "unit": "%"}, {"measurement": "Relative Activity", "setting": "[1]; 1 mM Mn^++, pH 5.3 sodium acetate buffer", "value": 145.2, "unit": "%"}, {"measurement": "Relative Activity", "setting": "[1]; 1 mM Mn^++, pH 7.0 potassium phosphate buffer", "value": 119.6, "unit": "%"}, {"measurement": "Relative Activity", "setting": "[1]; 10 mM Mn^++, pH 5.3 sodium acetate buffer", "value": 139.9, "unit": "%"}, {"measurement": "Relative Activity", "setting": "[1]; 10 mM Mn^++, pH 7.0 potassium phosphate buffer", "value": 95.7, "unit": "%"}, {"measurement": "pH dependence of Mn^++ activation (in words)", "setting": "[1]; pH 5.3 vs 7.0", "value": "greater activation at a pH of 5.3 than at 7.0"}, {"measurement": "pH of greatest Mn^++-induced activation", "setting": "[2]; 1.0 mM Mn^++, pH 3-8 tested", "value": 5.0}, {"measurement": "Relative Activity", "setting": "[2]; pH 3, 1.0 mM Mn^++", "value": 98, "unit": "%"}, {"measurement": "Relative Activity", "setting": "[2]; pH 4, 1.0 mM Mn^++", "value": 146.7, "unit": "%"}, {"measurement": "Relative Activity", "setting": "[2]; pH 5, 1.0 mM Mn^++", "value": 148.6, "unit": "%"}, {"measurement": "Relative Activity", "setting": "[2]; pH 6, 1.0 mM Mn^++", "value": 127.8, "unit": "%"}, {"measurement": "Relative Activity", "setting": "[2]; pH 7, 1.0 mM Mn^++", "value": 103.1, "unit": "%"}, {"measurement": "Relative Activity", "setting": "[2]; pH 8, 1.0 mM Mn^++", "value": 44.3, "unit": "%"}, {"measurement": "Relative Activity", "setting": "[3]; 0.01 mM Mn^++, cooked potato starch 0.5%", "value": 109.9, "unit": "%"}, {"measurement": "Relative Activity", "setting": "[3]; 0.01 mM Mn^++, cooked rice starch 0.5%", "value": 115.5, "unit": "%"}, {"measurement": "Relative Activity", "setting": "[3]; 0.01 mM Mn^++, cooked soluble potato starch 0.5%", "value": 118.3, "unit": "%"}, {"measurement": "Relative Activity", "setting": "[3]; 0.1 mM Mn^++, cooked barley starch 0.5%", "value": 129.2, "unit": "%"}, {"measurement": "Relative Activity", "setting": "[3]; 0.1 mM Mn^++, cooked pea starch 0.5%", "value": 129.5, "unit": "%"}, {"measurement": "Relative Activity", "setting": "[3]; 0.1 mM Mn^++, cooked potato starch 0.5%", "value": 117.5, "unit": "%"}, {"measurement": "Relative Activity", "setting": "[3]; 0.1 mM Mn^++, cooked rice starch 0.5%", "value": 126.0, "unit": "%"}, {"measurement": "Relative Activity", "setting": "[3]; 0.1 mM Mn^++, cooked soluble potato starch 0.5%", "value": 147.6, "unit": "%"}, {"measurement": "Relative Activity", "setting": "[3]; 0.1 mM Mn^++, cooked tapioca starch 0.5%", "value": 119.2, "unit": "%"}, {"measurement": "Relative Activity", "setting": "[3]; 0.1 mM Mn^++, cooked wheat starch 0.5%", "value": 118.2, "unit": "%"}, {"measurement": "Relative Activity", "setting": "[3]; 1 mM Mn^++, cooked pea starch 0.5%", "value": 143.9, "unit": "%"}, {"measurement": "Relative Activity", "setting": "[3]; 1 mM Mn^++, cooked potato starch 0.5%", "value": 128.7, "unit": "%"}, {"measurement": "Relative Activity", "setting": "[3]; 1 mM Mn^++, cooked rice starch 0.5%", "value": 129.6, "unit": "%"}, {"measurement": "Relative Activity", "setting": "[3]; 1 mM Mn^++, cooked soluble potato starch 0.5%", "value": 142.0, "unit": "%"}, {"measurement": "Relative Activity", "setting": "[3]; 1 mM Mn^++, cooked tapioca starch 0.5%", "value": 121.5, "unit": "%"}, {"measurement": "Relative Activity", "setting": "[3]; 1 mM Mn^++, cooked wheat starch 0.5%", "value": 153.0, "unit": "%"}, {"measurement": "Relative Activity", "setting": "[3]; 10 mM Mn^++, cooked barley starch 0.5%", "value": 142.2, "unit": "%"}, {"measurement": "Relative Activity", "setting": "[3]; 10 mM Mn^++, cooked pea starch 0.5%", "value": 182.3, "unit": "%"}, {"measurement": "Relative Activity", "setting": "[3]; 10 mM Mn^++, cooked potato starch 0.5%", "value": 160.2, "unit": "%"}, {"measurement": "Relative Activity", "setting": "[3]; 10 mM Mn^++, cooked rice starch 0.5%", "value": 157.7, "unit": "%"}, {"measurement": "Relative Activity", "setting": "[3]; 10 mM Mn^++, cooked wheat starch 0.5%", "value": 142.1, "unit": "%"}, {"measurement": "Relative Activity", "setting": "[4]; 0.01 mM Mn^++, cooked high-amylose V corn starch 0.5%", "value": 116.5, "unit": "%"}, {"measurement": "Relative Activity", "setting": "[4]; 0.01 mM Mn^++, cooked soluble corn starch 0.5%", "value": 118.3, "unit": "%"}, {"measurement": "Relative Activity", "setting": "[4]; 0.01 mM Mn^++, cooked waxy corn starch 0.5%", "value": 118.3, "unit": "%"}, {"measurement": "Relative Activity", "setting": "[4]; 0.1 mM Mn^++, cooked dent corn starch 0.5%", "value": 124.4, "unit": "%"}, {"measurement": "Relative Activity", "setting": "[4]; 0.1 mM Mn^++, cooked high-amylose V corn starch 0.5%", "value": 135.5, "unit": "%"}, {"measurement": "Relative Activity", "setting": "[4]; 0.1 mM Mn^++, cooked soluble corn starch 0.5%", "value": 128.1, "unit": "%"}, {"measurement": "Relative Activity", "setting": "[4]; 0.1 mM Mn^++, cooked waxy corn starch 0.5%", "value": 126.9, "unit": "%"}, {"measurement": "Relative Activity", "setting": "[4]; 1 mM Mn^++, cooked dent corn starch 0.5%", "value": 128.7, "unit": "%"}, {"measurement": "Relative Activity", "setting": "[4]; 1 mM Mn^++, cooked soluble corn starch 0.5%", "value": 135.8, "unit": "%"}, {"measurement": "Relative Activity", "setting": "[4]; 10 mM Mn^++, cooked dent corn starch 0.5%", "value": 147.8, "unit": "%"}, {"measurement": "Relative Activity", "setting": "[4]; 10 mM Mn^++, cooked high-amylose V corn starch 0.5%", "value": 160.1, "unit": "%"}, {"measurement": "Relative Activity", "setting": "[4]; 10 mM Mn^++, cooked soluble corn starch 0.5%", "value": 162.7, "unit": "%"}, {"measurement": "Relative Activity", "setting": "[4]; 10 mM Mn^++, cooked waxy corn starch 0.5%", "value": 155.8, "unit": "%"}, {"measurement": "Relative Activity", "setting": "[5]; 0.01 mM Mn^++", "value": 126.9, "unit": "%"}, {"measurement": "Relative Activity", "setting": "[5]; 0.1 mM Mn^++", "value": 131.2, "unit": "%"}, {"measurement": "Relative Activity", "setting": "[5]; 1 mM Mn^++", "value": 135.2, "unit": "%"}, {"measurement": "Relative Activity", "setting": "[6]; 0.01 mM Mn^++", "value": 120.2, "unit": "%"}, {"measurement": "Relative Activity", "setting": "[6]; 0.1 mM Mn^++", "value": 147.5, "unit": "%"}, {"measurement": "Relative Activity", "setting": "[6]; 1 mM Mn^++", "value": 224.4, "unit": "%"}, {"measurement": "Relative Activity", "setting": "[6]; 10 mM Mn^++", "value": 275.6, "unit": "%"}, {"measurement": "Relative Activity", "setting": "[7]; 0.01 mM Mn^++", "value": 114.7, "unit": "%"}, {"measurement": "Relative Activity", "setting": "[7]; 10 mM Mn^++", "value": 156.3, "unit": "%"}, {"measurement": "Relative Activity", "setting": "β-amylase from barley; 0.01 mM Mn^++", "value": 123.5, "unit": "%"}, {"measurement": "Relative Activity", "setting": "β-amylase from barley; 0.1 mM Mn^++", "value": 135.3, "unit": "%"}, {"measurement": "Relative Activity", "setting": "β-amylase from barley; 1 mM Mn^++", "value": 149.8, "unit": "%"}, {"measurement": "Relative Activity", "setting": "β-amylase from barley; 10 mM Mn^++", "value": 210.1, "unit": "%"}]}
